Experiments:
HT-29 = assay: Anti-necroptic activity in human HT-29 cells assessed as TNFalpha/Z-VAD (TSZ) induced necroptosis by measuring cell viability preincubated for 1 hr followed by TSZ addition ans measured after 24 hrs by celltiter-glo luminescent cell viability assay; assay type: functional, cell-based
L929 = assay: Anti-necroptic activity in mouse L929 cells assessed as TNFalpha/Z-VAD (TSZ) induced necroptosis by measuring cell viability preincubated for 1 hr followed by TSZ addition and measured after 24 hrs by celltiter-glo luminescent cell viability assay; assay type: functional, cell-based
[1] = Metabolic stability in human liver microsomes assessed as half life by LC-MS/MS analysis; assay type: ADME

half-life [1]	Compound	EC50 (HT-29)	EC50 (L929)
43 min	Cc1ncc(-c2ccc3nc(NC(=O)C4CC4)sc3c2)cc1NC(=O)OC1CCC(F)(F)CC1	6.1 nM	2 nM
	CC(=O)Nc1nc2ccc(-c3cnc(C)c(NC(=O)OC4CCCCC4)c3)cn2n1	> 1000 nM	
	CC(=O)Nc1nc2ccc(-c3cnc(C#N)c(NC(=O)OC4CCCCC4)c3)cc2s1	534 nM	
	COc1ncc(-c2ccc3nc(NC(C)=O)sc3c2)cc1NC(=O)OC1CCCCC1	182 nM	
	CC(=O)Nc1nc2cc(-c3cnc(C)c(NC(=O)OC4CCCCC4)c3)ccn2n1	> 1000 nM	
	CC(=O)Nc1nc2ccc(-c3cc(NC(=O)OC4CCCCC4)c(C)nn3)cc2s1	206 nM	
	CNc1nc2ccc(-c3cnc(C)c(NC(=O)OC4CCCCC4)c3)cc2s1	> 1000 nM	
	CC(=O)Nc1nc2cnc(-c3cnc(C)c(NC(=O)OC4CCCCC4)c3)cc2s1	> 1000 nM	
	CCOC(=O)Nc1nc2ccc(-c3cnc(C)c(NC(=O)OC4CCCCC4)c3)cc2s1	53 nM	
	Cc1ncc(-c2ccc3nc(NC(=O)C4CC4)sc3c2)cc1NC(=O)OC1CCC1	16 nM	
	CC(=O)Nc1nc2ccc(-c3cc(NC(=O)OC4CCCCC4)c(C)cn3)cc2s1	73 nM	15 nM
	CC(=O)Nc1nc2ccc(-c3cnc(C)c(NC(=O)OC4CCCCC4)c3)cc2s1	23 nM	13 nM
	Cc1ncc(-c2ccc3nc(NS(C)(=O)=O)sc3c2)cc1NC(=O)OC1CCCCC1	> 1000 nM	
14 min	CCC(C)OC(=O)Nc1cc(-c2ccc3nc(NC(=O)C4CC4)sc3c2)cnc1C (stereo not drawn)	17 nM	
	CC(=O)Nc1nc2ncc(-c3cnc(C)c(NC(=O)OC4CCCCC4)c3)cc2s1	> 1000 nM	
	CNC(=O)Nc1nc2ccc(-c3cnc(C)c(NC(=O)OC4CCCCC4)c3)cc2s1	7 nM	
	CCC(=O)Nc1nc2ccc(-c3cnc(C)c(NC(=O)OC4CCCCC4)c3)cc2s1	38 nM	
	CC(=O)Nc1nc2ccc(-c3cnc(C)c(NC(=O)OC4CCCCC4)c3)nc2s1	130 nM	30 nM
15 min	Cc1ncc(-c2ccc3nc(NC(=O)C4CC4)sc3c2)cc1NC(=O)OC1CCCOC1 (stereo not drawn)	27 nM	
5.7 min	Cc1ncc(-c2ccc3nc(NC(=O)C4CC4)sc3c2)cc1NC(=O)OC1CCCC1	8.9 nM	8.3 nM
12 min	Cc1ncc(-c2ccc3nc(NC(=O)C4CC4)sc3c2)cc1NC(=O)OC1CC(C)OC(C)C1 (stereo not drawn)	4.8 nM	5.2 nM
6.5 min	Cc1ncc(-c2ccc3nc(NC(=O)C4CC4)sc3c2)cc1NC(=O)OC1CCCCC1	1.6 nM	2.9 nM
	CC(=O)Nc1cn2nc(-c3cnc(C)c(NC(=O)OC4CCCCC4)c3)ccc2n1	97 nM	
	CCc1ncc(-c2ccc3nc(NC(C)=O)sc3c2)cc1NC(=O)OC1CCCCC1	74 nM	150 nM
	CC(=O)Nc1nc2ccc(-c3ccc(C)c(NC(=O)OC4CCCCC4)n3)cc2s1	650 nM	
	Cc1ncc(-c2ccc3nc(N)sc3c2)cc1NC(=O)OC1CCCCC1	100 nM	
	Cc1ncc(-c2ccc3nc(NC(=O)c4ccccc4)sc3c2)cc1NC(=O)OC1CCCCC1	52 nM	
	CC(=O)Nc1cn2cc(-c3cnc(C)c(NC(=O)OC4CCCCC4)c3)ccc2n1	97 nM	45 nM

From ChEMBL document CHEMBL5046240, “Design, synthesis, and evaluation of potent RIPK1 inhibitors with in vivo anti-inflammatory activity” (Eur J Med Chem, 2022)
